Where a name gives a salt, the structure may show the parent alone.

The record followed here is patent publication US20230265094A1, “RIPK1 INHIBITORS AND METHODS OF USE” (Merck Sharp & Dohme LLC, priority 2020, published 2023).

This assay addresses T1, RIPK1 (Homo sapiens, UniProt Q13546).
T1 construct: recombinant GST-RIPK1 kinase domain (residues 1-327) enzyme produced from baculovirus-transfected Sf21 cells; host or cells: baculovirus-transfected Sf21 insect cells
T1 sequence (Q13546 1-327): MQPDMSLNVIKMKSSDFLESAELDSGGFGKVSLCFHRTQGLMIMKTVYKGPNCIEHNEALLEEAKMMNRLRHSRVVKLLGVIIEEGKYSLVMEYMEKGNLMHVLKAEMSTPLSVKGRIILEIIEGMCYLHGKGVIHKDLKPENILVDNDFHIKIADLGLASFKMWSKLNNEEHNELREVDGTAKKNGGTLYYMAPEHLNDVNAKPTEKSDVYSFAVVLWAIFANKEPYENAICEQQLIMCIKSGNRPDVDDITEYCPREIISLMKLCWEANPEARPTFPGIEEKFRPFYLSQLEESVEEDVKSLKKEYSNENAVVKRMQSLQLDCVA
Put plainly: RIPK1-ADP-Glo enzymatic assay. The class given is biochemical. The note with it: ADP-Glo luminescent ADP detection; 25 nM GST-RIPK1 kinase domain (residues 1-327), 300 μM ATP, dephosphorylated-MBP substrate; 30 min pre-incubation, 150 min reaction. Put shortly: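 GST-RIPK1 kinase domain (residues 1-327, Sf21-expressed), 25 nM final, pre-incubated 30 min with compound (10-point 1:3 series from 100000 nM), then reacted 150 min with 300 μM ATP and 3 μM dephosphorylated MBP in HEPES pH 7.3 buffer. ADP read by ADP-Glo luminescence; EC50 from four-parameter fit.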
Usually EC50 stands for the midpoint of the concentration-response curve. High values mean lower potency in that assay, low ones higher potency in that assay. In turn, `C[C@H]1[C@@H](Oc2ccc(F)cc2)CN1C(=O)N1N=CC[C@H]1c1cncc(C#N)c1` [Example 2.25, 5-((S)-1-((2S,3S)-3-(4-fluorophenoxy)-2-methylazetidine-1-carbonyl)-4,5-dihydro-1H-pyrazol-5-yl)nicotinonitrile] returned an EC50 of 12.8 nM.

Consider `C[C@@H]1[C@@H](Oc2ccc(F)cc2)CN1C(=O)N1N=CC[C@H]1c1cc(F)cc(F)c1` [Example 2.26, ((S)-5-(3,5-difluorophenyl)-4,5-dihydro-1H-pyrazol-1-yl)((2R,3S)-3-(4-fluorophenoxy)-2-methylazetidin-1-yl)methanone], for which the half-maximal effective concentration (EC50) is 7.8 nM. As for `C[C@H]1[C@@H](Oc2ccc(F)cc2)CN1C(=O)N1N=CC[C@H]1c1cc(F)cc(F)c1` [Example 2.27, ((S)-5-(3,5-difluorophenyl)-4,5-dihydro-1H-pyrazol-1-yl)((2S,3S)-3-(4-fluorophenoxy)-2-methylazetidin-1-yl)methanone], the figure is 6.8 nM; as for `C[C@@H]1[C@@H](Oc2ccc(F)cc2)CN1C(=O)N1N=CC[C@H]1c1ccc(Cl)cc1` [Example 2.28, ((S)-5-(4-chlorophenyl)-4,5-dihydro-1H-pyrazol-1-yl)((2R,3S)-3-(4-fluorophenoxy)-2-methylazetidin-1-yl)methanone], 5.9 nM; as for `Cc1ncc([C@@H]2CC=NN2C(=O)N2CC(C)(Oc3ccc(F)cc3)C2)cc1F` [Example 2.30, (S)-(5-(5-fluoro-6-methylpyridin-3-yl)-4,5-dihydro-1H-pyrazol-1-yl)(3-(4-fluorophenoxy)-3-methylazetidin-1-yl)methanone], 14.2 nM. As for `CC1(Oc2ccc(F)cc2)CN(C(=O)N2N=CC[C@H]2c2cncc(C#N)c2)C1` [Example 2.32, (S)-5-(1-(3-(4-fluorophenoxy)-3-methylazetidine-1-carbonyl)-4,5-dihydro-1H-pyrazol-5-yl)nicotinonitrile], the figure is 25.5 nM. The compound `CC1(Oc2ccc(F)cc2)CN(C(=O)N2N=CC[C@H]2c2cc(F)cc(F)c2)C1` [Example 2.33, (S)-(5-(3,5-difluorophenyl)-4,5-dihydro-1H-pyrazol-1-yl)(3-(4-fluorophenoxy)-3-methylazetidin-1-yl)methanone] came in with a half-maximal effective concentration (EC50) of 19.8 nM. Compound `CC1(Oc2ccc(F)cc2)CN(C(=O)N2N=CC[C@H]2c2ccc(Cl)cc2)C1` [Example 2.34, (S)-(5-(4-chlorophenyl)-4,5-dihydro-1H-pyrazol-1-yl)(3-(4-fluorophenoxy)-3-methylazetidin-1-yl)methanone] showed a 50% effective concentration (EC50) of 12.7 nM. As for `CC1(Oc2ccnc(C#N)c2)CN(C(=O)N2N=CC[C@H]2c2cc(F)cc(F)c2)C1` [Example 2.35, (S)-4-((1-(5-(3,5-difluorophenyl)-4,5-dihydro-1H-pyrazole-1-carbonyl)-3-methylazetidin-3-yl)oxy)picolinonitrile], the figure is 24.2 nM; as for `C[C@H]1[C@@H](Oc2ccnc(C#N)c2)CN1C(=O)N1N=CC[C@H]1c1cc(F)cc(F)c1` [Example 2.36, 4-(((25,3S)-1-((S)-5-(3,5-difluorophenyl)-4,5-dihydro-1H-pyrazole-1-carbonyl)-2-methylazetidin-3-yl)oxy)picolinonitrile], 20.5 nM. In the case of `C[C@@H]1[C@@H](Oc2ccnc(C#N)c2)CN1C(=O)N1N=CC[C@H]1c1cc(F)cc(F)c1` [Example 2.37, 4-(((2R,3S)-1-((S)-5-(3,5-difluorophenyl)-4,5-dihydro-1H-pyrazole-1-carbonyl)-2-methylazetidin-3-yl)oxy)picolinonitrile], the concentration giving a half-maximal response (EC50) was 6.6 nM. To `C[C@@H]1[C@H](Oc2ccnc(C#N)c2)CN1C(=O)N1N=CC[C@H]1c1cc(F)cc(F)c1` [Example 2.38, 4-(((2R,3R)-1-((S)-5-(3,5-difluorophenyl)-4,5-dihydro-1H-pyrazole-1-carbonyl)-2-methylazetidin-3-yl)oxy)picolinonitrile] belongs 85.9 nM; to `N#Cc1cncc([C@@H]2CC=NN2C(=O)N2CC(Oc3ccc(F)cc3)C2)c1` [Example 2.39, (S)-5-(1-(3-(4-fluorophenoxy)azetidine-1-carbonyl)-4,5-dihydro-1H-pyrazol-5-yl)nicotinonitrile], 33.1 nM. To `N#Cc1cc(C(F)(F)C2CN(C(=O)N3N=CC[C@H]3c3cc(F)cc(F)c3)C2)ccn1` [Example 2.41, (S)-4-((1-(5-(3,5-difluorophenyl)-4,5-dihydro-1H-pyrazole-1-carbonyl)azetidin-3-yl)difluoromethyl)picolinonitrile] belongs 22.9 nM.

With `N#Cc1cccc(OC2CN(C(=O)N3N=CC[C@H]3c3cc(F)cc(F)c3)C2)c1` [Example 2.44, (S)-3-((1-(5-(3,5-difluorophenyl)-4,5-dihydro-1H-pyrazole-1-carbonyl)azetidin-3-yl)oxy)benzonitrile], the concentration giving a half-maximal response (EC50) was determined as 11.9 nM. To `CCC1(Oc2ccccc2)CN(C(=O)N2N=CC[C@H]2c2cc(F)cc(F)c2)C1` [Example 2.45, (S)-(5-(3,5-difluorophenyl)-4,5-dihydro-1H-pyrazol-1-yl)(3-ethyl-3-phenoxyazetidin-1-yl)methanone] belongs 57.4 nM; to `N#Cc1cc(CC2CN(C(=O)N3N=CC[C@H]3c3cc(F)cc(F)c3)C2)ccn1` [Example 2.46, (S)-4-((1-(5-(3,5-difluorophenyl)-4,5-dihydro-1H-pyrazole-1-carbonyl)azetidin-3-yl)methyl)picolinonitrile], 46.3 nM.

In turn, `O=C(N1CC(OC2CCC2)C1)N1N=CC[C@H]1c1cc(F)cc(F)c1` [Example 2.47, (S)-(3-cyclobutoxyazetidin-1-yl)(5-(3,5-difluorophenyl)-4,5-dihydro-1H-pyrazol-1-yl)methanone] showed an EC50 of 92.7 nM. As for `N#Cc1cc(OC2CN(C(=O)N3N=CC[C@H]3c3cc(F)cc(F)c3)C2)ccn1` [Example 3.1, (S)-4-((1-(5-(3,5-difluorophenyl)-4,5-dihydro-1H-pyrazole-1-carbonyl)azetidin-3-yl)oxy)picolinonitrile, TFA Salt], the figure is 6.6 nM; as for `Cn1c(OC2CN(C(=O)N3N=CC[C@H]3c3cc(F)cc(F)c3)C2)nc2ccccc21` [Example 3.2, (S)-(5-(3,5-difluorophenyl)-4,5-dihydro-1H-pyrazol-1-yl)(3-((1-methyl-1H-benzo[d]imidazol-2-yl)oxy)azetidin-1-yl)methanone, TFA salt], 97 nM; as for `Cc1ncnc(OC2CN(C(=O)N3N=CC[C@H]3c3cc(F)cc(F)c3)C2)c1C` [Example 3.3, (S)-(5-(3,5-difluorophenyl)-4,5-dihydro-1H-pyrazol-1-yl)(3-((5,6-dimethylpyrimidin-4-yl)oxy)azetidin-1-yl)methanone, TFA salt], 75.9 nM. In the case of `CSc1nc(C)cc(OC2CN(C(=O)N3N=CC[C@H]3c3cc(F)cc(F)c3)C2)n1` [Example 3.4, (S)-(5-(3,5-difluorophenyl)-4,5-dihydro-1H-pyrazol-1-yl)(3-((6-methyl-2-(methylthio)pyrimidin-4-yl)oxy)azetidin-1-yl)methanone, TFA salt], the midpoint of the response, the EC50, lay at 38.1 nM.

`Cc1csc(OC2CN(C(=O)N3N=CC[C@H]3c3cc(F)cc(F)c3)C2)n1` [Example 3.5, (S)-(5-(3,5-difluorophenyl)-4,5-dihydro-1H-pyrazol-1-yl)(3-((4-methylthiazol-2-yl)oxy)azetidin-1-yl)methanone, TFA salt] showed an EC50 of 8.9 nM. Regarding `O=C(N1CC(Oc2nc3ccncc3s2)C1)N1N=CC[C@H]1c1cc(F)cc(F)c1` [Example 3.6, (S)-(5-(3,5-difluorophenyl)-4,5-dihydro-1H-pyrazol-1-yl)(3-(thiazolo[5,4-c]pyridin-2-yloxy)azetidin-1-yl)methanone, TFA salt], the EC50 is 18.2 nM. As for `Cc1nc(OC2CN(C(=O)N3N=CC[C@H]3c3cc(F)cc(F)c3)C2)cc(C(C)(C)O)n1` [Example 3.7, (S)-(5-(3,5-difluorophenyl)-4,5-dihydro-1H-pyrazol-1-yl)(3-((6-(2-hydroxypropan-2-yl)-2-methylpyrimidin-4-yl)oxy)azetidin-1-yl)methanone, TFA salt], the figure is 1490 nM; as for `O=C(N1CC(Oc2ncc(Cn3cccn3)s2)C1)N1N=CC[C@H]1c1cc(F)cc(F)c1` [Example 3.8, (S)-(3-((5-((1H-pyrazol-1-yl)methyl)thiazol-2-yl)oxy)azetidin-1-yl)(5-(3,5-difluorophenyl)-4,5-dihydro-1H-pyrazol-1-yl)methanone, TFA salt], 105 nM.
